Experiment [1] deals with Tau binding to heparin (HS-GAG) (Homo sapiens, UniProt P10636). In words: Inhibition of Tau binding to immobilized heparin-BSA (ELISA). Also on record: species or system porcine. To be noted: for inhibition at 30 µM: read-out: Tau/Heparin Activity (% inhibition class). As for the experimental part: (§1) Porcine intestinal mucosa heparin conjugated to Bovine Serum Albumin (Heparin-BSA) was prepared as described (Najjam, S. et al. 1997, Cytokine 12, 1013-1022). Heparin is a sulfated HS-GAG and is commonly used as a HS-GAG in biochemical and binding assays (Lindahl, U. and Kjellen, L. (2013) ibid). Heparin-BSA at 0.01 mg/ml in Phosphate Buffered Saline (PBS; pH 7.4) was added to a 96 well polystyrene ELISA plate (NUNC Cat. No. 449824; 100 μl per well) and incubated Over Night (ON) at 4 degrees Celsius. For negative controls, ELISA plates were coated with BSA instead of Heparin-BSA, using the same procedure. Following the incubation, the plate was washed consecutively, by immersion, with de-ionized water and PBS (pH 7.4). The ELISA plate was then blocked with nonfat milk (2%, 200 μl per well) for 2 hours at Room Temperature (RT) with gentle shaking. Following blocking, the plate was washed with de-ionized water then PBS (pH 7.4). GBAPs were dissolved and diluted in PBS (pH 6.5, supplemented with 0.1% BSA) at desired concentrations, added to the ELISA plates containing immobilized Heparin-BSA (100 μl per well) and incubated for 2 hours at RT with gentle shaking. Following incubation, the plate was washed with de-ionized water and three times with PBS (pH 6.5) plus Tween. Bound GBAP was detected by a monoclonal antibody specific for that GBAP, followed by incubation with secondary antibody conjugated to horseradish peroxidase (HRP). Antibody was diluted in PBS (pH 6.5 supplemented with 1% BSA). Following each incubation with antibody, the plate was washed with de-ionized water and three times with PBS (pH 6.5) wash buffer containing 0.1% Tween. The peroxidase substrate chromogen, TMB (Dako Cat. No. S1599) was added (100 μl per well) to the ELISA plate and incubated at room temperature. After 5 minutes ELISA Stop Solution (hydrochloric acid 1N, sulfuric acid 3N) was added (100 μl per well) to stop the peroxidase catalyzed colorimetric reaction. The Optical Density of the samples was measured at 450 nm using an ELISA plate reader (BioTek Synergy H1). Following color development, the % inhibition compared to control (BSA-coated plates) was determined. IC-50s were calculated using GraphPad Prism software.
Chain of Tau binding to heparin (HS-GAG) (P10636 with tags, fused parts or gaps): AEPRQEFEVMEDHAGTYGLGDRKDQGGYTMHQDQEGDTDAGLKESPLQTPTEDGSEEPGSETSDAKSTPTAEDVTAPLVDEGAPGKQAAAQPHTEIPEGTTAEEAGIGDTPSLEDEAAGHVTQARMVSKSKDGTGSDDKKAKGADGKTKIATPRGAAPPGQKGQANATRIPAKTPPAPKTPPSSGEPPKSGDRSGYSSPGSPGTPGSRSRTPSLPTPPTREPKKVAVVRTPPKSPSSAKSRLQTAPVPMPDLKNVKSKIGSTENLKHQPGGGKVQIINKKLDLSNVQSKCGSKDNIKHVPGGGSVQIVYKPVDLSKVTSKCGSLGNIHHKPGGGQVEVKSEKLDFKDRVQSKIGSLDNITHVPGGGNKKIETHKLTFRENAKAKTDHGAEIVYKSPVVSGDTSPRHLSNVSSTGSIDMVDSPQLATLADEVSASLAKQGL
The assay was performed as described in Example 43, with the following modifications. Following to coating the plates with Heparin-BSA, plates were washed as described. The compounds were dissolved in DMSO at 10 mM final concentration and further diluted prior to assay. DMSO concentration in the screening well was up to 2%. Individual compounds were co-incubated with Tau on plates containing immobilized heparin. Tau purchased from rPeptide (Cat. No. T1001) was dissolved in DMSO (Sigma Cat. No. D2650), quickly frozen and kept in aliquots at −80 degrees Celsius. Tau dissolved in PBS (pH 6.5, supplemented with BSA, 0.1%) was added to the ELISA plate (100 μl per well) and incubated for 2 hours at RT with gentle shaking. Following the incubation, the plate was washed with de-ionized water and three times with PBS (pH 6.5) plus Tween. Bound Tau was detected by anti-Tau Monoclonal Antibody D-8 (Santa Cruz Cat. No. sc-166060), followed by secondary anti-IgG antibody conjugated to HRP (R&D System, Cat. No. HAF007). Following to color development with TMB, as described in Example 43, the Optical Density of the samples was measured at 450 nm using an ELISA plate reader. Following color development, the % inhibition compared to control (no compound, DMSO control) for every compound was determined.
An example of inhibition curve is shown in FIG. 3 for Inhibitor Compounds 3 and 6. As described in Example 43, Heparin in the form of Heparin-BSA conjugate is used as a source of HS-GAG. For each compound IC-50 value in Tau—heparin-BSA binding assay is shown in […]. In some cases IC-50 was not measured and […] at 30 μM compound concentration is shown instead. […]

For experiment [2], the target named is Alpha-Synuclein Protofibril binding to heparin (HS-GAG) (Homo sapiens, UniProt P37840). In words: Inhibition of alpha-synuclein protofibril binding to immobilized heparin-BSA (ELISA). Also on record: species or system porcine. Particulars: for inhibition at 30 µM: read-out: Alpha-Synuclein/Heparin Activity (% inhibition class). As for the experimental part: as §1
The assay was performed as described in Example 43, with the following modifications. Following to coating the plates with Heparin-BSA, plates were washed as described. The compounds were dissolved in DMSO at 10 mM final concentration and further diluted prior to assay. DMSO concentration in the screening well was up to […]. Individual compounds were co-incubated with alpha-synuclein on plates containing immobilized heparin. Alpha-synuclein purchased from rPeptide (Cat. No. S1001) was used to prepare protofibrils as described in Ihse et al., 2017. Alpha-synuclein was dissolved in PBS (pH7.4) to a concentration of 140 μM (˜2 mg/ml), and incubated for 7 days at 37° C. with rotary agitation (400 rpm). Resulting fibrils were sonicated for 10 minutes in ultrasonic water bath, quickly frozen and kept in aliquots at −80 degrees Celsius. Protofibrillar alpha-synuclein diluted in PBS (pH 6.5, supplemented with BSA, 0.1%) was added to the ELISA plate (100 μl per well) and incubated for 2 hours at RT with gentle shaking. Following the incubation, the plate was washed with de-ionized water and three times with PBS (pH 6.5) plus Tween. Bound Alpha-synuclein was detected by Anti-Alpha-synuclein Monoclonal Antibody 211 (Santa Cruz Cat. No. sc-12767), followed by secondary anti-IgG antibody conjugated to HRP (R&D System, Cat. No. HAF007). Following to color development with TMB, as described in Example 43, the Optical Density of the samples was measured at 450 nm using an ELISA plate reader. Following color development, the % inhibition compared to control (no compound, DMSO control) for every compound was determined.
An example of inhibition curve is shown in FIG. 1 for Inhibitor Compounds 22 and 24. […]
Background: An ELISA detects its analyte on a solid surface through an enzyme-linked reagent.

The mark [3] stands for this setting: Tau/Heparin Activity (IC-50), Tau, heparin-BSA.
Where [4] appears, read: Alpha-Synuclein/Heparin Activity (IC-50), alpha-synuclein protofibrils, heparin-BSA.
The mark [5] stands for this setting: 30 μM compound, Tau, heparin-BSA.
Setting [6] is: 30 μM compound, alpha-synuclein protofibrils, heparin-BSA.

The structures appear in SMILES notation. Counter-ions that a name gives are not always drawn. Like-named read-outs stand apart in the source and are kept apart here.

With `Cc1cn(-c2ccc(Nc3cncc4cc(Cl)ccc34)cn2)c(C)n1` [Compound 37, 7-chloro-N-(6-(2,4-dimethyl-1H-imidazol-1-yl)pyridin-3-yl)isoquinolin-4-amine phosphoric acid salt], the inhibition at 30 µM in experiment [1] and in experiment [2] was less than 30% in each case.

With `Clc1ccc2c(N/N=C/c3ccc(-n4ccnc4)cc3)ccnc2c1` [Compound 38, 4-(2-(4-(1H-imidazol-1-yl)benzylidene)hydrazineyl)-7-chloroquinoline dihydrochloride], the IC50 is 2.94 µM in experiment [1] (setting [3]) and 1.88 µM in experiment [2] (setting [4]).

`CCN1CCN(c2ccc(Nc3ccnc4cc5ccccc5cc34)cc2)CC1` [Compound 39, N-(4-(4-ethylpiperazin-1-yl)phenyl)benzo[g]quinolin-4-amine]: the values for the IC50 in experiment [1] (setting [3]) and in experiment [2] (setting [4]) were 13.2 µM and 3.39 µM, respectively.

As to `Cc1ncn(-c2ncc(Nc3ncnc4cc(Cl)ccc34)cc2O)c1C` [Compound 40, 5-((7-chloroquinazolin-4-yl)amino)-2-(4,5-dimethyl-1H-imidazol-1-yl)pyridin-3-ol phosphoric acid salt], the results for the inhibition at 30 µM in experiment [1] and in experiment [2] were greater than 30% and less than 30%, respectively.

Consider `Clc1ccc2c(Nc3ccc(-n4ccnc4)nc3)ncnc2c1` [Compound 41, N-(6-(1H-imidazol-1-yl)pyridin-3-yl)-7-chloroquinazolin-4-amine], for which the IC50 in experiment [1] (Tau, heparin-BSA, read-out: Tau/Heparin Activity (IC-50)) was found to be 14.7 µM; in experiment [2] (alpha-synuclein protofibrils, heparin-BSA, read-out: Alpha-Synuclein/Heparin Activity (IC-50)), 12.8 µM.

For the molecule `CCN(CC)Cc1cccc(Nc2ccnc3cc(Cl)ccc23)c1` [Compound 42, 7-chloro-N-(3-((diethylamino)methyl)phenyl)quinolin-4-amine], the inhibition at 30 µM in experiment [1] (setting [5]) and in experiment [2] (setting [6]) was less than 30% in each case.

As for `C[n+]1ccn(-c2ccc(Nc3ncnc4cc(Cl)ccc34)cn2)c1` [Compound 43, 1-(5-((7-chloroquinazolin-4-yl)amino)pyridin-2-yl)-3-methyl-1H-imidazol-3-ium iodide phosphoric acid salt], the inhibition at 30 µM in experiment [1] and in experiment [2] was less than 30% throughout.

In the case of `Clc1ccc2c(Nc3ccc(-n4cncn4)nc3)ccnc2c1` [Compound 44, N-(6-(1H-1,2,4-triazol-1-yl)pyridin-3-yl)-7-chloroquinolin-4-amine], in experiment [1], the inhibition at 30 µM is greater than 30%. In addition, in experiment [2] (setting [4]), the IC50 was 19.2 µM.

With `CN(C)Cc1cc(Nc2ccnc3cc(Cl)ccc23)ccn1` [Compound 45, 7-chloro-N-(2-((dimethylamino)methyl)pyridin-4-yl)quinolin-4-amine], the inhibition at 30 µM in experiment [1] (setting [5]) and in experiment [2] (setting [6]) was less than 30% throughout.

The record behind these values is patent US20240398783A1, “Compounds and Pharmaceutical Compositions Comprising Inhibitors of Amyloid Peptide Interactions with Glycosaminoglycans, Methods of Treatment and Use Thereof” (Gismo Therapeutics, Inc., priority 2021, published 2024).
